From US11807627B2, “Morphic forms of complement factor D inhibitors” (priority 2018, dated 2023)
Converted amounts (≈) assume the structure as drawn.

Tests used:
[1] = Interconversion experiments: competitive slurries (Example 2, Table 6); type: physicochemical
Protocol: A solution of Compound 3 and solvent/solvent system of interest was prepared. Solids persisted in solution. The samples were placed onto a stir plate at ambient (RT) or elevated (ET) temperatures. The samples were monitored to ensure that solids persisted during the slurry process. The solids were collected via vacuum filtration and dried under ambient conditions. […] At ambient temperature, Forms B and M are both present after almost a week of slurrying.

[2] = pH experiments and SIF/SGF/FaSSIF/FeSSIF solubility (Examples 3 and 4); type: physicochemical
[3] = ICH stability study of amorphous Compound 2; type: physicochemical
Description: Compound 2 stored in double LDPE bag with silica gel in aluminum receptacle with lid had the following stability characteristics described in Table 9.

[4] = Thermal stability by TGA; type: physicochemical; conditions: to 150° C.
Protocol: TG analyses were performed using a TA Instruments Q5000 IR thermogravimetric analyzer. Temperature calibration was performed using nickel and Alumel™. Each sample was placed in an aluminum pan. The sample was hermetically sealed, the lid pierced, then inserted into the TG furnace. The furnace was heated under nitrogen. The method code on the thermogram is an abbreviation for the start and end temperature as well as the heating rate; e.g., […] means “from 25° C. to 350° C., at 10° C./min”.

[5] = tested on: Caco2; test: Caco2 permeability and efflux ratio; type: in vitro ADME; conditions: A-B
[6] = Caco2 permeability and efflux ratio; type: in vitro ADME; conditions: human, Caco-2; Caco2; read-out: Efflux ratio (B-A/A-B)
[7] = Solid state stress testing (temperature, humidity, storage, photostability); type: physicochemical
[8] = Solution stress testing (acid, base, oxidative degradation); type: physicochemical
[9] = Dose number and BCS classification; type: physicochemical
[10] = Vapor stress experiments at room temperature; type: physicochemical
Description: Compound 3 was placed into vials which were sealed into chambers containing organic solvents. The samples were kept under these conditions for a period of days and then checked for signs of morphology changes.

[11] = Interconversion experiments: heat stress of forms (Table 6); type: physicochemical; conditions: no solvent
Protocol: Saturated solutions of Compound 3 or solids generated from crystallization attempts were prepared. A small quantity of the sample was placed into an oven set at a specified temperature. The samples were monitored, microscopically, for signs of crystallization.

[12] = Drying of isolated samples at 50° C. for approximately 24 hours; type: physicochemical
Protocol: Samples produced from thermal cycling, cooling and evaporation experiments were dried at 50° C. for approximately 24 hours to assess any de-solvation/dehydration. From temperature cycling experiments, 3 samples converted upon drying: • Acetonitrile sample converted from Form J to amorphous; • 40% Ethanol/60% Water (% v/v) converted from Form N to Form P; and • Methanol sample converted from Form O to amorphous.

[13] = Thermogravimetric/differential thermal analysis (TG/DTA); type: physicochemical; conditions: Table 22B
Protocol: Approximately, 5 mg of material was weighed into an open aluminium pan and loaded into a simultaneous thermogravimetric/differential thermal analyzer (TG/DTA) and held at room temperature. The sample was then heated at a rate of 10° C./min from 20° C. to 400° C. during which time the change in sample weight occurred was recorded along with any differential thermal events (DTA). Nitrogen was used as the purge gas at a flow rate of 300 cm^3/min.

[14] = Solvent solubility screen by solvent addition (lyophilized material); type: physicochemical; conditions: thermodynamic from solid
Protocol: A solvent solubility screen was conducted using 32 solvent systems. Approximately 360 mg of Compound 3 Form A was weighed into a 20 mL glass vial and dissolved using 18 mL of 1,4-dioxane. 0.5 mL of the solution was then dispensed into thirty-four 2 mL glass vials (approx. 10 mg per vial). The Compound 3 Form A solutions were then frozen (at −50° C.) and dried by lyophilization using a Lablyo mini freeze drier. Post-lyophilization, a sub-sample was taken and analyzed by XRPD. Material was successfully rendered amorphous by lyophilization.
The material produced from lyophilization was used for the solubility assessment. Solubility was estimated by a solvent addition technique. The solubility study was completed as follows: • Each solvent system was added to the appropriate vial in 5 volume aliquots until 100 volumes had been added or until the API dissolved; • Between each addition, samples were heated to 40° C. to check dissolution at elevated temperatures; • If 100 volumes of solvent were added without dissolution, solubility was calculated to be below this point.

[15] = Storage stability of Compound 3 forms (80° C., 40° C./75% RH, 25° C./60% RH, ambient); type: physicochemical; conditions: 40° C./75% RH or 25° C./60% RH, capped or uncapped vial
Protocol: No changes by XRPD or HPLC purity were observed when the material was stored at 40° C./75% RH, 80° C. or under ambient conditions.

## CC(=O)c1nn(CC(=O)N2[C@H](C(=O)Nc3nc(Br)ccc3C)C[C@@]3(C)C[C@@H]23)c2ccc(-c3cnc(C)nc3)cc12 [A vs. B]
[1]; ACN, RT Slurry
  Interconversion: XRPD Result after slurry: Form E
[1]; EtOAc, RT Slurry
  Interconversion: XRPD Result after slurry: Form B
[1]; EtOAc, ~50° C. Slurry
  Interconversion: XRPD Result after slurry: Form B

## CC(=O)c1nn(CC(=O)N2[C@H](C(=O)Nc3nc(Br)ccc3C)C[C@@]3(C)C[C@@H]23)c2ccc(-c3cnc(C)nc3)cc12 [A, B, G]
[1]; EtOAc, RT Slurry
  Interconversion: XRPD Result after slurry: Form B

## CC(=O)c1nn(CC(=O)N2[C@H](C(=O)Nc3nc(Br)ccc3C)C[C@@]3(C)C[C@@H]23)c2ccc(-c3cnc(C)nc3)cc12 [B, G, M]
[1]; EtOAc, ~50° C. Slurry
  Interconversion: XRPD Result after slurry: Form M*

## CC(=O)c1nn(CC(=O)N2[C@H](C(=O)Nc3nc(Br)ccc3C)C[C@@]3(C)C[C@@H]23)c2c(C)cc(-c3cnc(C)nc3)cc12 [Compound 2]
[2]; FaSSIF, read-out: FaSSIF solubility
  solubility: 2.6 µg/mL (≈ 0.00422 mM)
[2]; FeSSIF, read-out: FeSSIF solubility
  solubility: 4.7 µg/mL (≈ 0.00762 mM)
[3]; 5° C./NR RH, 1-month
  Assay: 97.3%
  Total Impurities: 1.9%
  Water Content: 2.5%
  XRPD: amorphous
[3]; 5° C./NR RH, 3-month
  Assay: 97.5%
  Total Impurities: 1.7%
  Water Content: 2.3%
[3]; 5° C./NR RH, Time Zero
  Assay: 97.2%
  Total Impurities: 1.9%
  Water Content: 1.9%
  XRPD: amorphous
[3]; 25° C./60% RH, 1-month
  Assay: 97.0%
  Total Impurities: 1.9%
  Water Content: 3.0%
  XRPD: amorphous
[3]; 25° C./60% RH, 2 weeks
  Assay: 99.5%
  Total Impurities: 1.9%
  Water Content: 2.7%%
[3]; 25° C./60% RH, 3-month
  Assay: 97.8%
  Total Impurities: 1.9%
  Water Content: 3.1%
[3]; 25° C./60% RH, Time Zero
  Assay: 97.2%
  Total Impurities: 1.9%
  Water Content: 1.9%
  XRPD: amorphous
[3]; 40° C./75% RH, 1-month
  Assay: 97.5%
  Total Impurities: 1.9%
  Water Content: 4.0%
  XRPD: amorphous
[3]; 40° C./75% RH, 2 weeks
  Assay: 99.8%
  Total Impurities: 1.9%
  Water Content: 3.5%
[3]; 40° C./75% RH, 3-month
  Assay: 96.4%
  Total Impurities: 1.6%
  Water Content: 3.8%
[3]; 40° C./75% RH, Time Zero
  Assay: 97.2%
  Total Impurities: 1.9%
  Water Content: 1.9%
  XRPD: amorphous
[4]
  Thermal Stability by TGA: ~0.2% wt. loss to 150 °C
[5]
  Caco2: A-B: Caco2: A-B ~26 × 10^−6 cm/s
[6]
  efflux ratio: 1.2
[7]; 70° C./75% RH
  Solid State Stress Testing: Chemical Stability: No degradation
  Solid State Stress Testing: Humidity: Amorphous crystallizes out
[7]; exposure to UV visible
  Solid State Stress Testing: Photostability: No light sensitivity
[8]; 0.1N HCl
  Solution stress testing: Acid degradation: Degradation observed
[8]; 0.1N HCl, 7-days at RT
  Acid degradation, extent: (~8% 7-days at RT)
[8]; 0.1N NaOH
  Solution stress testing: Base degradation: Degradation observed
[8]; 0.1N NaOH, 2-days at RT
  Base degradation, extent: (~18% 2-days at RT)
[8]; H2O2
  Solution stress testing: Oxidative degradation: Not susceptible to oxidation
[9]
  BCS class: BCS II compound
[9]; for 125 mg
  Dose Number: Dose Number (for 125 mg): 106-190

## CC(=O)c1nn(CC(=O)N2[C@H](C(=O)Nc3nc(Br)ccc3C)C[C@@]3(C)C[C@@H]23)c2ccc(-c3cnc(C)nc3)cc12 [Disordered]
[10]; EtOAc vapor
  Vapor stress: XRPD Result: Form B
[10]; MTBE vapor
  Vapor stress: XRPD Result: Form C

## CC(=O)c1nn(CC(=O)N2[C@H](C(=O)Nc3nc(Br)ccc3C)C[C@@]3(C)C[C@@H]23)c2ccc(-c3cnc(C)nc3)cc12 [Form C]
[11]; ~50° C.
  Interconversion: XRPD Result after heating: Form C

## CC(=O)c1nn(CC(=O)N2[C@H](C(=O)Nc3nc(Br)ccc3C)C[C@@]3(C)C[C@@H]23)c2ccc(-c3cnc(C)nc3)cc12 [Form E]
[11]; ~50° C.
  Interconversion: XRPD Result after heating: Form G

## CC(=O)c1nn(CC(=O)N2[C@H](C(=O)Nc3nc(Br)ccc3C)C[C@@]3(C)C[C@@H]23)c2ccc(-c3cnc(C)nc3)cc12 [Form F + C]
[11]; ~50° C.
  Interconversion: XRPD Result after heating: Form F + C

## CC(=O)c1nn(CC(=O)N2[C@H](C(=O)Nc3nc(Br)ccc3C)C[C@@]3(C)C[C@@H]23)c2ccc(-c3cnc(C)nc3)cc12 [Form G]
[11]; ~50° C.
  Interconversion: XRPD Result after heating: Form G
[11]; ~160° C.
  Interconversion: XRPD Result after heating: Form M

## CC(=O)c1nn(CC(=O)N2[C@H](C(=O)Nc3nc(Br)ccc3C)C[C@@]3(C)C[C@@H]23)c2ccc(-c3cnc(C)nc3)cc12 [Form J + Form L]
[11]; ~50° C.
  Interconversion: XRPD Result after heating: Form G

## CC(=O)c1nn(CC(=O)N2[C@H](C(=O)Nc3nc(Br)ccc3C)C[C@@]3(C)C[C@@H]23)c2ccc(-c3cnc(C)nc3)cc12 [Form M]
[1]; Forms B and M, approximately 50° C.
  Relative stability in competitive slurry: most stable

## CC(=O)c1nn(CC(=O)N2[C@H](C(=O)Nc3nc(Br)ccc3C)C[C@@]3(C)C[C@@H]23)c2ccc(-c3cnc(C)nc3)cc12 [Form N]
[12]
  Form after drying (de-solvation/dehydration): Form P
[13]
  Onset Temp: Weak thermal events: onset of 134.7 °C

## CC(=O)c1nn(CC(=O)N2[C@H](C(=O)Nc3nc(Br)ccc3C)C[C@@]3(C)C[C@@H]23)c2ccc(-c3cnc(C)nc3)cc12 [Form O]
[12]
  Form after drying (de-solvation/dehydration): amorphous
[13]; listed as Pattern O
  Onset Temp: Melting: Melting 179.6 °C

## CC(=O)c1nn(CC(=O)N2[C@H](C(=O)Nc3nc(Br)ccc3C)C[C@@]3(C)C[C@@H]23)c2ccc(-c3cnc(C)nc3)cc12 [Lyophilized Compound 3]
[14]; 2-propanol/heptane mixtures, organic solvent or mixture, 2-propanol, 95% 2-propanol/5% heptane, 70% 2-propanol/30% heptane, toluene, elevated temperatures (40° C.), read-out: Solubility (solvent addition), dissolution at elevated temperatures
  solubility: > 200000 µg/mL
[14]; organic solvent or mixture, 1,4-dioxane, 1-butanol, 2-methyl THF, 95% 2-propanol/5% water, acetone, acetonitrile, 95% acetonitrile/5% water, chloroform, DCM, DMSO, ethyl acetate (dry), ethanol, isopropyl acetate, methanol, MEK, MIBK, DMF, DMA, THF, 95% methanol/5% water, read-out: Solubility (solvent addition)
  solubility: ≥ 200000 µg/mL
[14]; organic solvent or mixture, 50% 2-propanol/50% heptane and 50% ethanol/50% heptane (% v/v), read-out: Solubility (solvent addition)
  solubility: > 100000 µg/mL
[14]; n-heptane, tert-butylmethyl ether, ethyl ether, water, 50% 2-propanol/50% water, 40% ethanol/60% water, read-out: Solubility (solvent addition)
  solubility: < 10000 µg/mL
[15]
  Stability: recrystallization upon storage: no recrystallization
